Assay results from the supplement of paper PMC5762512.

How the values were obtained:
Test in all cases: IC50 cell viability (Alamar Blue, 96 h)
10326 = system: 10326
Method: (§1)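 Cells in log-phase growth were seeded in 96-well plates and treated with drug for 96 h at 37°C using 8-point serial dilutions from 0.0025 to 10 µM. Viability was read by Alamar Blue fluorescence after 6 h and normalised to positive and vehicle (DMSO) controls. IC50 values were fitted in ActivityBase; the value given is the mean of two independent experiments.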

11060 = system: 11060
Method: as §1

14169 = system: 14169
Method: as §1

8645 = system: 8645
Method: as §1

A549 = system: A549
Method: as §1

CAKI-1 = system: CAKI-1
Method: as §1

HCC2429 = system: HCC2429
Method: as §1

HS-27 = system: HS-27
Method: as §1

P896-CL = system: P896-CL
Method: as §1

PER-403 = system: PER-403
Method: as §1

PER-535 = system: PER-535
Method: as §1

PER-536 = system: PER-536
Method: as §1

PER-624 = system: PER-624
Method: as §1

PER-704 = system: PER-704
Method: as §1

PER-712 = system: PER-712
Method: as §1

PER-891 = system: PER-891
Method: as §1

RPMI2650 = system: RPMI2650
Method: as §1

TC797 = system: TC797
Method: as §1

TY82 = system: TY82
Method: as §1

WI-38 = system: WI-38
Method: as §1

Structure (SMILES) | IC50 cell viability 10326 | IC50 cell viability 11060 | IC50 cell viability 14169 | IC50 cell viability 8645 | IC50 cell viability (A549) | IC50 cell viability (CAKI-1) | IC50 cell viability (HCC2429) | IC50 cell viability (HS-27) | IC50 cell viability (P896-CL) | IC50 cell viability (PER-403) | IC50 cell viability (PER-535) | IC50 cell viability (PER-536) | IC50 cell viability (PER-624) | IC50 cell viability (PER-704) | IC50 cell viability (PER-712) | IC50 cell viability (PER-891) | IC50 cell viability (RPMI2650) | IC50 cell viability (TC797) | IC50 cell viability (TY82) | IC50 cell viability (WI-38)
CC[C@]1(O)C[C@H]2CN(CCc3c([nH]c4ccccc34)[C@@](C(=O)OC)(c3cc4c(cc3OC)N(C=O)[C@H]3[C@@](O)(C(=O)OC)[C@H](OC(C)=O)[C@]5(CC)C=CCN6CC[C@]43[C@@H]65)C2)C1 [Vincristine] | < 0.0025 µM | < 0.0025 µM | < 0.0025 µM | < 0.0025 µM | 0.00614 µM | 5.02 µM | < 0.0025 µM | 0.00719 µM | 0.00877 µM | < 0.0025 µM | 0.00692 µM | 0.0207 µM | 0.00758 µM | 0.00618 µM | 0.00868 µM | 0.0275 µM | > 10 µM | 0.00535 µM | 0.00825 µM | 0.00835 µM
COc1cc2c(cc1-c1c(C)noc1C)ncc1[nH]c(=O)n([C@H](C)c3ccccn3)c12 [I-BET 151] | 0.0435 µM | 0.937 µM | 0.178 µM | 0.529 µM | 0.738 µM | 7.15 µM | 0.159 µM | 4.37 µM | 3.15 µM | 0.129 µM | 1.14 µM | 4.21 µM | 3.24 µM | 0.95 µM | 1.94 µM | 9.29 µM | 6.81 µM | > 10 µM | 0.584 µM | 1.76 µM
O=C(CCCCCCC(=O)Nc1ccccc1)NO [Vorinostat] | 0.514 µM | 2.74 µM | 1.22 µM | 0.561 µM | 2.07 µM | 4.1 µM | 1.17 µM | 4.29 µM | 3.19 µM | 0.732 µM | 2.44 µM | > 10 µM | 1.54 µM | 2.14 µM | 3.45 µM | > 10 µM | 5.84 µM | 7.21 µM | 2.24 µM | 4.45 µM
C[C@H]1O[C@@H](O[C@H]2[C@@H](O)C[C@H](O[C@H]3[C@@H](O)C[C@H](O[C@H]4CC[C@@]5(C)[C@H](CC[C@@H]6[C@@H]5C[C@@H](O)[C@]5(C)[C@@H](C7=CC(=O)OC7)CC[C@]65O)C4)O[C@@H]3C)O[C@@H]2C)C[C@H](O)[C@@H]1O [Digoxin] | 0.0415 µM | 0.0862 µM | 0.052 µM | 0.0825 µM | 0.0165 µM | 0.323 µM | 0.0969 µM | 0.0589 µM | 0.158 µM | 0.0577 µM | 0.218 µM | 0.598 µM | 0.0997 µM | 0.2 µM | 0.299 µM | 0.103 µM | 0.0976 µM | 0.226 µM | 0.0837 µM | 0.034 µM
O=C1c2c(O)ccc(O)c2C(=O)c2c(NCCNCCO)ccc(NCCNCCO)c21 [Mitoxantrone] | < 0.0025 µM | 0.00736 µM | < 0.0025 µM | < 0.0025 µM | < 0.0025 µM | 1.12 µM | 0.01 µM | 0.0417 µM | 0.0109 µM | 0.00531 µM | 0.0107 µM | 0.144 µM | 0.0128 µM | 0.142 µM | 0.57 µM | 0.266 µM | 1.28 µM | 0.141 µM | 0.314 µM | 0.108 µM
COc1cc(Nc2ncc3c(n2)-c2ccc(Cl)cc2C(c2c(F)cccc2OC)=NC3)ccc1C(=O)O [Alisertib] | 0.149 µM | 0.168 µM | 0.0678 µM | 0.327 µM | 0.249 µM | 8.1 µM | 0.229 µM | 5.39 µM | 2.41 µM | 0.0381 µM | 0.0374 µM | 1.58 µM | 0.873 µM | 4.88 µM | 0.306 µM | > 10 µM | > 10 µM | > 10 µM | > 10 µM | 6.14 µM
CN1CC[C@H](c2c(O)cc(O)c3c(=O)cc(-c4ccccc4Cl)oc23)[C@H](O)C1 [Flavopiridol] | 0.0254 µM | 0.0272 µM | 0.0248 µM | 0.0177 µM | 0.061 µM | 0.122 µM | 0.0403 µM | 0.108 µM | 0.0248 µM | 0.0466 µM | 0.131 µM | 0.273 µM | 0.0428 µM | 0.0708 µM | 0.0825 µM | 0.0695 µM | 0.14 µM | 0.0844 µM | 0.0647 µM | 0.0846 µM
Cc1csc(-c2nnc(Nc3ccc(Oc4ncccc4-c4ccnc(N)n4)cc3)c3ccccc23)c1 [AMG-900] | 0.00375 µM | 0.0981 µM | 0.00394 µM | > 10 µM | 0.00642 µM | > 10 µM | 0.00726 µM | > 10 µM | 5.02 µM | < 0.0025 µM | 0.112 µM | > 10 µM | > 10 µM | > 10 µM | > 10 µM | > 10 µM | > 10 µM | > 10 µM | > 10 µM | 7.36 µM
